Measured values published in patent US9371365B2, “Modified compstatin with peptide backbone and C-terminal modifications” (The Trustees of the University of Pennsylvania, priority 2009, dated 2016).

Assay: In vivo retention: plasma half-life in baboons by LC-MS/MS
Design: species or system baboon (P. Anubis)
Details: P. Anubis, baboon (P. Anubis), in vivo, iv, 10 mg
Description: A 96-well plate HLB Oasis 10 mg (Waters, Milford, Mass.) was employed for extraction. The SPE material was conditioned by addition of 500 μl of methanol followed by addition of 500 μL of milli-Q water. Sample was prepared by addition of the internal standard followed by 1:1 dilution with 4% H3PO4. After loading the sample, washing was carried out with 500 μL of 5% methanol in 0.1% formic acid. Sample was eluted with 150 μL of 65% methanol in 0.1% formic acid and collected in the collection plate. Solvent was evaporated to dryness in a speed-vac concentrator and reconstituted in 5% acetonitrile in 0.1% formic acid. Samples were kept at −20° C. until analysis.
Baboon plasma samples, 40 μL, were mixed with internal standard and dissolved 1:1 with 40 mM ammonium carbonate buffer. Rapigest detergent was added to a final concentration of 0.1%. Disulfide bridges were reduced in 5 mM DTT for 30 min at 60° C. Alkylation of cysteines was done by addition of iodoacetamide to a final concentration of 15 mM and incubation for 30 min in dark. The sample was enzymatically digested by addition of 16 μL of a 1 μG/μL trypsin solution and incubation overnight at 37° C. After that, the sample pH was lowered with 5% TFA to induce detergent degradation. To avoid nonspecific adsorption of very hydrophobic peptides, acetonitrile was added to 20%. The samples were centrifuged at 6° C. and 14000 rpm for 30 min and the supernatant was diluted with 0.1% formic acid to reduce acetonitrile concentration to 10% prior to filtration with a 10 kDa cut-off microcon centrifugal filter (Millipore, Billerica, Mass.). The filter was washed with 50 μL of 10% ACN in 0.1% formic acid and the collected sample was evaporated to dryness and reconstituted with 10% ACN in 0.1% formic acid.
LC-MS/MS analysis was performed on a SYNAPT HDMS (Waters, Milford, Mass.) controlled by MassLynx 4.1 software (Waters) and equipped with a nanoESI source. Each sample was injected in triplicate. A nanoACQUITY UPLC (Waters) system was used for peptide separation by reversed-phase liquid chromatography. After injection, analytes were trapped for 3 min with 3% mobile phase A (0.1% formic acid in water) at 5 μl/min on a 5 μm Symmetry C18 column (180 μm×20 mm, Waters) and further separated on a 1.7 μm BEH130 C18 column (75 μm×150 mm, Waters). The analytical column temperature was held at 35° C. Peptides were separated at flow rate 0.3 μl/min. The gradient was linear 3-40% B (0.1% formic acid in acetonitrile), either 50 min long, or 60 min for the digested samples. The capillary voltage was 3.2 kV, the cone voltage was 35 V and the source temperature was 100° C. [Glu1]-fibrinogen peptide was used for lock-mass correction with a sampling rate of 30 s. Mass spectra were acquired in positive mode over an m/z range 400-2000 Da at scan rate 0.6 s. The time window used for the MS/MS function was ±3 min of the retention time of the selected peptide. The presence of the analyte was confirmed by MS/MS. Selectivity was studied by analysis of blank samples to determine the presence of any interference coeluting with the analyte.
Juvenile baboons (P. Anubis, Baboon Research Resources, University of Oklahoma) weighing 5-8 kg were used. Three baboons were used for the study; one for each compound. All animals received a bolus dose of peptides (10 mg) by injection through the peripheral vein. […]

`CC[C@H](C)[C@H](NC(=O)[C@@H]1CSSC[C@H](NC(=O)[C@@H](NC(C)=O)[C@@H](C)CC)C(=O)N[C@@H](C(C)C)C(=O)N[C@@H](Cc2cn(C)c3ccccc23)C(=O)N[C@@H](CCC(N)=O)C(=O)N[C@@H](CC(=O)O)C(=O)N[C@@H](Cc2c[nH]c3ccccc23)C(=O)N(C)CC(=O)N[C@@H](C)C(=O)N[C@@H](Cc2c[nH]cn2)C(=O)N[C@@H](CCCNC(=N)N)C(=O)N1)C(N)=O` [Peptide 17, Ac−Ic[CV(^1−MeW)QDW(^N−MeG)AHRC]I-NH2] showed a half-life of roughly 1 h.
